# From patent publication US7973006B2, “Antibacterial agent based on fatty acid esters of hydroxy carboxylic acid acids” (Purac Biochem B.V., priority 2007, dated 2011)
# Several values for one entry are separate records, joined by “and”; a condition that tells them apart may be missing. Equal values may be shown once.
# Columns and labels:
# [1] = test system: Escherichia coli (ATCC 8739); test: Bioscreen growth rate in brain heart infusion broth with lactylate and polylysine; type: cell-based
# [2] = test system: Salmonella Typhimurium ATCC 13311; test: Decontamination of inoculated chicken filets, surviving cell count; type: cell-based; conditions: for Salmonella Typhimurium on chicken filets: individual, 12° C.
# Experimental: Salmonella Typhimurium ATCC 13311 and Escherichia coli O157:H7 ATCC 700728 were grown in sterile screw capped tubes containing Brain heart infusion broth for 18-24 hours at 30° C.
# Chicken filets (150-200 g) were trimmed, vacuum packaged and stored at 4-7° C. Filets were subsequently sterilized by gamma-irradiation (average radiation dose: 12 kiloGray).
# 1 ml of an overnight culture of Salmonella Typhimurium in brain heart infusion both was diluted 1000 times with sterile 0.8% (w/v) NaCl and 0.1% (w/v) peptone. 0.5 ml of this diluted culture was transferred to one side of the filet. The inoculum was distributed by gently rubbing the entire surface of the filet. This was repeated for the other side of the filet. Inoculation was carried out at 6° C. Inoculated filets were rested for 60-120 min at 6° C. to allow attachment of the cells.
# Chicken filets were briefly dipped and completely submersed in 1 l of a solution containing the appropriate formulation and then transferred to 400 ml Bagfilter® lateral filter bags (Interscience, St Nom, France) containing 5 ml of the appropriate formulation. Bags were vacuum-sealed and incubated at 12° C. for up to 7 days until further analysis. Time zero samples were plated within 30 min after dipping.
# Surviving Salmonella Typhimurium on chicken filets were counted as follows: a sealed bag was opened and to this was added 2 times the net weight sterile dilution fluid ([…] NaCl and 0.1% (w/v) bacteriological peptone). Duplicate filets were homogenized for 1 min. in a Bagmixer® 400 paddle labblender (Interscience, St Nom, France). 50 μl of the homogenates or dilutions thereof were plated on duplicate Salmonella chromogenic agar plates (CM1007) with cefsulodin, novobiocin supplement (SR0194) (Oxoid, Basingstoke, United Kingdom) using an Eddyjet type 1.23 spiral plater (IUL Instruments, Barcelona, Spain). Plates were incubated for 24-48 hours at 30° C. and then counted. Salmonella numbers were expressed as log10 colony forming units per ml homogenate.
# The compositions of the formulations that were studied are shown in Table 2. ε-Polylysine and lactylates were dissolved in demineralised water and sterilized for 20 min at 120° C.
# [3] = test system: Salmonella typhimurium (ATCC 13311); test: Bioscreen growth rate in brain heart infusion broth with lactylate and polylysine; type: cell-based
# Experimental: (§1) The following cultures were used in a study: Escherichia coli serotype O157:H7 (ATCC 700728), Salmonella typhimurium (ATCC 13311) and Salmonella entiritidis (ATCC 13076). All cultures were transferred daily in screw-capped tubes containing 10 ml brain heart infusion broth. Cultures were incubated at 30° C. without agitation. Brain heart infusion broth was prepared with increasing amounts of lactylate and polylysine. The concentration range for the caprylic (C8) lactylate was as from 0 to 0.45% in 10 0.05% steps, for the capric (C10) lactylate was as from 0 to 0.09% in 10 0.01% steps, for the lauric (C12) lactylate was as from 0 to 0.009% in 10 0.001% steps and for the tetradecanoic (C14) lactylate was as from 0 to 0.009% in 10 0.001% steps. Lactylates were combined with polylysine. The concentration range for the polylysine was as from 0 to 0.0675% in 10 0.0075% steps. […] The pH of the media was adjusted to 6.1-6.2 with 1 N HCl or 1 N NaOH. Media were prepared in 10 ml quantities and sterilized by filtration. 300 μl of each medium was transferred to a panel of a sterile Bioscreen® honeycomb 100 well plate. Well plates were inoculated with 5 μl of a culture that was grown overnight in brain heart infusion broth using a sterile 5 μl repeating dispenser. Growth rates were determined with a Bioscreen® C that kinetically measures the development of turbidity by vertical photometry. The plates were incubated for 16-24 hours at 37° C., the optical density of the cultures was measured every 30 minutes at 420-580 nm using a wide band filter. The Bioscreen® measures at set time intervals the optical density of the cultures. […] The purpose of further data processing is to ascertain whether two […] act independently of each other or whether they stimulate each other in their inhibitory action (synergy) or cancel out each other inhibitory effect (antagonism). When a certain compound has no effect on an organism the specific growth rate of this organism (μ) can be expressed as a function (f) of the growth limiting substrate concentration (s) by for example the Monod equation, which reads: μ=μmax·s/(Ks+s), where μmax represents the maximum specific growth rate, s the standing concentration of the growth limiting substrate in the medium and Ks the substrate concentration where μ=0.5μmax. However, when the presence of an inhibitor P affects cell growth the function f for μ must be modified i.e. μ=f(s,p), where p represents the concentration of inhibitor P. Numerous studies of growth inhibition kinetics of bacteria have shown that many inhibitors behave as non-competitive inhibitors. This implies that only the maximum specific growth rate (μmax) value and not the affinity (Ks) is affected. Therefore the specific growth rate in the presence of inhibitor can be written as: μ=μi·s/(Ks+s), where μi is the maximal specific growth rate in the presence of a inhibitor P. The relationship between μi and μmax and the concentration of the inhibitor P was describes using the Logistic Dose Response equation, which reads: μi/μmax=1/(1+(p/p0.5)^b) (Jungbauer, A. (2001). The logistic dose response function: a robust fitting function for transition phenomena in life sciences. J. Clinical Ligand Assay 24: 270-274). In this equation p represents the concentration of inhibitor P and p0.5 the concentration of P where μi=0.5μmax; μmax is the maximum specific growth rate that is the specific growth rate in the absence of inhibitor P, b is a dimensionless quantity, which determines the relationship between μi and p. Combining the Monod and Logistic Dose Response equation it can be written as: μ=μmax(s/Ks+s)/(1+(p/p0.5)^b). In batch culture where s is usually many times higher than Ks this equation reduces to μ=μmax/(1+(p/p0.5)^b). When comparing different organisms grown under the same conditions, or the same organism grown under different conditions, it is more meaningful to use relative growth rate, rather than absolute growth rates as standards of comparison. […]
# [4] = test system: Escherichia coli serotype O157:H7 (ATCC 700728); test: as above; type: cell-based
# Experimental: as §1
# [5] = test system: Salmonella entiritidis (ATCC 13076); test: as above; type: cell-based
# Experimental: as §1
# Candida albicans = conditions: EP 1000542; cited from earlier work
# Enterococcus faecalis = conditions: EP 1000542; cited from earlier work
# [6] = 0.45% (w/w) in broth, pH 6.1-6.2, 37° C.
# [7] = 0.0225% (w/w) in broth, pH 6.1-6.2, 37° C.
compound,measurement,setting,value
"CCCCCCCC(=O)OC(C)C(=O)[O-].[Na+] (centres unmarked) [C8-lactylate, sodium salt of octanoyllactylate]",Observed Relative Growth Rate,[1]; [6],0.5625
same,Salmonella Typhimurium on chicken filets,"[2]; 0.2% (w/v), day 0",3.85 log10 colony forming units (CFU)/ml
same,Salmonella Typhimurium on chicken filets,"[2]; 0.2% (w/v), day 1",4.1 log10 colony forming units (CFU)/ml
same,Salmonella Typhimurium on chicken filets,"[2]; 0.2% (w/v), day 2",4.29 log10 colony forming units (CFU)/ml
same,Salmonella Typhimurium on chicken filets,"[2]; 0.2% (w/v), day 5",6.27 log10 colony forming units (CFU)/ml
same,Salmonella Typhimurium on chicken filets,"[2]; 0.2% (w/v), day 6",7.35 log10 colony forming units (CFU)/ml
same,Salmonella Typhimurium on chicken filets,"[2]; 0.2% (w/v), day 7",7.42 log10 colony forming units (CFU)/ml
same,Observed Relative Growth Rate,[3]; [6],0.4763
same,Observed Relative Growth Rate,[4]; [6],0.657
same,Observed Relative Growth Rate,[5]; [6],0.58
"CCCCCCCCCC(=O)OC(C)C(=O)O (centres unmarked) [C10-lactylate, decanoyllactylate]",Observed Relative Growth Rate,[1]; 0.09% (w/w) in broth,0.721
same,Salmonella Typhimurium on chicken filets,"[2]; 0.05% (w/v), day 0",3.75 log10 colony forming units (CFU)/ml
same,Salmonella Typhimurium on chicken filets,"[2]; 0.05% (w/v), day 1",3.95 log10 colony forming units (CFU)/ml
same,Salmonella Typhimurium on chicken filets,"[2]; 0.05% (w/v), day 2",4.45 log10 colony forming units (CFU)/ml
same,Salmonella Typhimurium on chicken filets,"[2]; 0.05% (w/v), day 5",6.87 log10 colony forming units (CFU)/ml
same,Salmonella Typhimurium on chicken filets,"[2]; 0.05% (w/v), day 6",6.83 log10 colony forming units (CFU)/ml
same,Salmonella Typhimurium on chicken filets,"[2]; 0.05% (w/v), day 7",7.52 log10 colony forming units (CFU)/ml
same,Observed Relative Growth Rate,[3]; 0.09% (w/w) in broth,0.904
same,Observed Relative Growth Rate,[4]; 0.09% (w/w) in broth,0.766
same,Observed Relative Growth Rate,[5]; 0.09% (w/w) in broth,0.912
CCCCCCCCCC(=O)OC(C)C(=O)OC(C)C(=O)[O-].[Na+] (centres unmarked) [sodium salt of capryl-lactyl-lactylate],antimicrobial activity,Candida albicans,some antimicrobial activity
same,antimicrobial activity,Enterococcus faecalis,some antimicrobial activity
"poly(imino(2-amino-1-oxo-1,6-hexanediyl)) [ε-polylysine]",Observed Relative Growth Rate,[1]; [7],0.4935 and 0.7370 and 0.4395 and 0.68
same,Salmonella Typhimurium on chicken filets,"[2]; 0.1% (w/v), day 0",3.04 log10 colony forming units (CFU)/ml
same,Salmonella Typhimurium on chicken filets,"[2]; 0.1% (w/v), day 1",2.04 log10 colony forming units (CFU)/ml
same,Salmonella Typhimurium on chicken filets,"[2]; 0.1% (w/v), day 2",2.15 log10 colony forming units (CFU)/ml
same,Salmonella Typhimurium on chicken filets,"[2]; 0.1% (w/v), day 5",4.04 log10 colony forming units (CFU)/ml
same,Salmonella Typhimurium on chicken filets,"[2]; 0.1% (w/v), day 6",4.26 log10 colony forming units (CFU)/ml
same,Salmonella Typhimurium on chicken filets,"[2]; 0.1% (w/v), day 7",5.35 log10 colony forming units (CFU)/ml
same,reduction in numbers,"[2]; single addition, after one day of incubation",2 log10
same,Observed Relative Growth Rate,[3]; [7],0.943 and 0.9725 and 0.9520
same,Observed Relative Growth Rate,[5]; [7],0.9645 and 0.971 and 0.9035
